Test results published in patent US20250136558A1, “PYRAZINE COMPOUNDS AS IRREVERSIBLE INHIBITORS OF FLT3” (BIOMEA FUSION, INC., priority 2021, published 2025).

Assays:
[1] = system: MOLM-13; test: Proliferation inhibition (CellTiter-Glo) in MOLM-13 cells; format: cell-based; settings: Homo sapiens, 96 h, MOLM-13 AML cells, heterozygous FLT3-ITD, IC50 (4 days)
Outline: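 MOLM-13 human AML cells, heterozygous for FLT3-ITD, were grown in RPMI-1640 with 10% heat-inactivated FBS and 1% Pen-Strep. About 10,000 cells in 200 μL were seeded per well of 96-well plates. After 2 hours, compounds from DMSO stocks were dispensed at eight concentrations in duplicate, with 0.2% DMSO as the untreated control. Viability was read as CellTiter-Glo ATP luminescence, and IC50 was obtained from a four-parameter logistic fit.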

[2] = system: MV-4-11; test: Proliferation inhibition (CellTiter-Glo) in MV-4-11 cells; format: cell-based; settings: Homo sapiens, MV4-11, 96 h, MV-4-11 AML cells, homozygous FLT3-ITD, IC50 (4 days)
Outline: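 MV-4-11 human AML cells (homozygous FLT3-ITD) grown in RPMI-1640 with 10% heat-inactivated FBS and 1% Pen-Strep were seeded at about 10,000 cells per 200 μL in 96 well plates. Two hours later, compounds were dispensed at eight concentrations in duplicate. Viability was measured by CellTiter-Glo luminescence, and IC50 values came from four-parameter logistic non-linear regression against untreated cells (0.2% DMSO).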

[3] = system: K-562; test: Proliferation inhibition (CellTiter-Glo) in K-562 cells; format: cell-based; settings: Homo sapiens, K562, 96 h, K-562 CML cells, no FLT3 mutations, IC50 (4 days)
Outline: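 The CML line […] (ATCC: CRL-3343) was cultured in RPMI-1640 with 10% heat-inactivated FBS and 1% Pen-Strep at 37° C. Cells were seeded at about 10,000 per 200 μL in 96-well plates, and test compound was dispensed 2 hours later at eight concentrations in duplicate. Viability was measured as ATP luminescence with CellTiter-Glo. Untreated cells (0.2% DMSO) defined 100% proliferation, and IC50 values came from four-parameter logistic fits.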

[4] = system: quizartinib-resistant AML; settings: Yamaura et al., 2018; cited from earlier work

SMILES | IC50 [1] | IC50 [2] | IC50 [3] | activity against quizartinib-resistant AML [4]
CCc1nc(C(N)=O)c(Nc2cccc(OCCCNC(=O)[C@H](C)N(C)C(=O)/C=C/CN(C)C)c2)nc1N(CC)CC [Compound 141, (S,E)-5-(diethylamino)-3-((3-(3-(2-(4-(dimethylamino)-N-methylbut-2-enamido)propanamido)propoxy)phenyl)amino)-6-ethylpyrazine-2-carboxamide] | < 1 nM | < 1 nM | > 500 nM | –
CCc1nc(C(N)=O)c(Nc2cccc(OCCCNC(=O)[C@H](C)N(C)C(=O)/C=C/CN(C)C)c2)nc1N1CCCC1 [Compound 142, (S,E)-3-((3-(3-(2-(4-(dimethylamino)-N-methylbut-2-enamido)propanamido)propoxy)phenyl)amino)-6-ethyl-5-(pyrrolidin-1-yl)pyrazine-2-carboxamide] | 1 to 10 nM | 1 to 10 nM | > 500 nM | –
CCc1nc(C(N)=O)c(Nc2cccc(OCCCNC(=O)[C@H](C)N(C)C(=O)/C=C/CN(C)C)c2)nc1N(C)C(C)C [Compound 145, (S,E)-3-((3-(3-(2-(4-(dimethylamino)-N-methylbut-2-enamido)propanamido)propoxy)phenyl)amino)-6-ethyl-5-(isopropyl(methyl)amino)pyrazine-2-carboxamide] | 1 to 10 nM | < 1 nM | > 500 nM | –
CCc1nc(C(N)=O)c(Nc2cccc(OCCCNC(=O)[C@H](C)N(C)C(=O)/C=C/CN(C)C)c2)nc1N(C)CC [Compound 146, (S,E)-3-((3-(3-(2-(4-(dimethylamino)-N-methylbut-2-enamido)propanamido)propoxy)phenyl)amino)-6-ethyl-5-(ethyl(methyl)amino)pyrazine-2-carboxamide] | 1 to 10 nM | < 1 nM | > 500 nM | –
CCc1nc(C(N)=O)c(Nc2cccc(OCCCNC(=O)[C@H](C)N(C)C(=O)/C=C/CN3CC(F)(F)C3)c2)nc1NC1CCOCC1 [Compound 147, (S,E)-3-((3-(3-(2-(4-(3,3-difluoroazetidin-1-yl)-N-methylbut-2-enamido)propanamido)propoxy)phenyl)amino)-6-ethyl-5-((tetrahydro-2H-pyran-4-yl)amino)pyrazine-2-carboxamide] | > 500 nM | 10 to 100 nM | > 500 nM | –
CCc1nc(C(N)=O)c(Nc2cccc(OCCCNC(=O)[C@H](C)N(C)C(=O)/C=C/CN(C)C)c2)nc1N1CCC1 [Compound 148, (S,E)-5-(azetidin-1-yl)-3-((3-(3-(2-(4-(dimethylamino)-N-methylbut-2-enamido)propanamido)propoxy)phenyl)amino)-6-ethylpyrazine-2-carboxamide] | 1 to 10 nM | 1 to 10 nM | > 500 nM | –
CCCNc1nc(Nc2ccc(C#N)cc2)ncc1C#CCCCNC(=O)[C@H](C)N(C)C(=O)/C=C/CN(C)C [FF-10101] | – | – | – | demonstrated activity

Continued, in another order:

IC50 [1] | IC50 [2] | IC50 [3] | SMILES | activity against quizartinib-resistant AML [4]
1 to 10 nM | < 1 nM | > 500 nM | CCc1nc(C(N)=O)c(Nc2cc(F)cc(OCCCNC(=O)[C@H](C)N(C)C(=O)/C=C/CN(C)C)c2)nc1N(C)C [Compound 149, (S,E)-5-(dimethylamino)-3-((3-(3-(2-(4-(dimethylamino)-N-methylbut-2-enamido)propanamido)propoxy)-5-fluorophenyl)amino)-6-ethylpyrazine-2-carboxamide] | –
> 500 nM | > 500 nM | > 500 nM | CCc1nc(C(=O)NC)c(Nc2cc(F)cc(OCCCNC(=O)C(C)N(C)C(=O)/C=C/CN(C)C)c2)nc1N(C)C (stereo not shown) [Compound 151, (E)-5-(dimethylamino)-3-((3-(3-(2-(4-(dimethylamino)-N-methylbut-2-enamido)propanamido)propoxy)-5-fluorophenyl)amino)-6-ethyl-N-methylpyrazine-2-carboxamide] | –
> 500 nM | > 500 nM | > 500 nM | CCc1nc(C(=O)NC)c(Nc2cccc(CCNC(=O)C(C)N(C)C(=O)/C=C/CN(C)C)c2)nc1NC1CCOCC1 (stereo not shown) [Compound 152, (E)-3-((3-(2-(2-(4-(dimethylamino)-N-methylbut-2-enamido)propanamido)ethyl)phenyl)amino)-6-ethyl-N-methyl-5-((tetrahydro-2H-pyran-4-yl)amino)pyrazine-2-carboxamide] | –
10 to 100 nM | 1 to 10 nM | > 500 nM | CCc1nc(C(N)=O)c(Nc2cc(F)cc(O[C@@H](C)CNC(=O)[C@H](C)N(C)C(=O)/C=C/CN(C)C)c2)nc1N(C)C [Compound 153, 5-(dimethylamino)-3-((3-(((S)-1-((S)-2-((E)-4-(dimethylamino)-N-methylbut-2-enamido)propanamido)propan-2-yl)oxy)-5-fluorophenyl)amino)-6-ethylpyrazine-2-carboxamide] | –
10 to 100 nM | 10 to 100 nM | > 500 nM | CCc1nc(C(N)=O)c(Nc2cc(F)cc(O[C@H](C)CNC(=O)C(C)N(C)C(=O)/C=C/CN(C)C)c2)nc1N(C)C (stereo partly drawn) [Compound 155, 5-(dimethylamino)-3-((3-(((2R)-1-(2-((E)-4-(dimethylamino)-N-methylbut-2-enamido)propanamido)propan-2-yl)oxy)-5-fluorophenyl)amino)-6-ethylpyrazine-2-carboxamide] | –
> 500 nM | 10 to 100 nM | > 500 nM | CC#CC(=O)N(C)[C@@H](C)C(=O)NCCc1cccc(Nc2nc(C)c(CC)nc2C(N)=O)c1 [Compound 206, 3-[3-[2-[[(2S)-2-[but-2-ynoyl(methyl)amino]propanoyl]amino]ethyl]anilino]-6-ethyl-5-methyl-pyrazine-2-carboxamide] | –
> 500 nM | 10 to 100 nM | > 500 nM | CCc1nc(C(N)=O)c(Nc2cccc(CCNC(=O)C3(N(C)C(=O)/C=C/CN(C)C)CCC3)c2)nc1C [Compound 210, (E)-3-((3-(2-(1-(4-(dimethylamino)-N-methylbut-2-enamido)cyclobutane-1-carboxamido)ethyl)phenyl)amino)-6-ethyl-5-methylpyrazine-2-carboxamide] | –
> 500 nM | > 500 nM | > 500 nM | CC#CC(=O)N(C)[C@@H](C)C(=O)NCCc1cccc(Nc2nc(C)c(C)nc2C(N)=O)c1 [Compound 212, (S)-5,6-dimethyl-3-((3-(2-(2-(N-methylbut-2-ynamido)propanamido)ethyl)phenyl)amino)pyrazine-2-carboxamide] | –
> 500 nM | > 500 nM | > 500 nM | CCc1nc(C(N)=O)c(Nc2cccc(CCNC(=O)C(C)(C)N(C)C(=O)/C=C/CN(C)C)c2)nc1C [Compound 229, (E)-3-((3-(2-(2-(4-(dimethylamino)-N-methylbut-2-enamido)-2-methylpropanamido)ethyl)phenyl)amino)-6-ethyl-5-methylpyrazine-2-carboxamide] | –
> 500 nM | 10 to 100 nM | > 500 nM | CC#CC(=O)N(C)[C@@H](C)C(=O)NCCc1cccc(Nc2nc(C3CC3)c(C)nc2C(N)=O)c1 [Compound 235, (S)-5-cyclopropyl-6-methyl-3-((3-(2-(2-(N-methylbut-2-ynamido)propanamido)ethyl)phenyl)amino)pyrazine-2-carboxamide] | –
